Measured values taken from ChEMBL document CHEMBL3421527, “Synthesis and anti-mycobacterial activity of 2-chloronicotinaldehydes based novel 1H-1,2,3-triazolylbenzohydrazides” (Bioorg Med Chem Lett, 2015).
In brackets after ≈: the same amount, converted by molar mass.

Legend:
[1] = system: Mycobacterium tuberculosis; experiment: Anti-mycobacterial activity against Mycobacterium tuberculosis H37Rv ATCC 27294 assessed as inhibition of microbial growth incubated for 5 days by MABA method; format: functional; settings: H37Rv ATCC 27294, 120 h
[2] = system: PBMC; experiment: Cytotoxicity against PBMC (unknown origin) assessed as reduction in cell viability after 72 hrs by MTT assay; format: cell-based; settings: Homo sapiens
[3] = system: RAW264.7; experiment: Cytotoxicity against mouse RAW264.7 cells assessed as reduction in cell viability after 72 hrs by MTT assay; format: cell-based; settings: RAW264.7, 72 h
[4] = Selectivity index, ratio of IC50 for PBMC (unknown origin) to MIC for Mycobacterium tuberculosis H37Rv ATCC 27294
[5] = Selectivity index, ratio of IC50 for mouse RAW264.7 cells to MIC for Mycobacterium tuberculosis H37Rv ATCC 27294; format: toxicity; settings: read-out: Selectivity Index

Compound	MIC [1]	IC50 [2]	IC50 [3]	Selectivity Index [4]	selectivity ratio [5]
Cc1cnc(Cl)c(Cn2cc(C=O)nn2)c1	13.3 µM	–	–	–	–
O=Cc1cn(Cc2cc(-c3ccccc3)cnc2Cl)nn1	5.2 µM	–	–	–	–
Cc1ccc(-c2cnc(Cl)c(Cn3cc(C=O)nn3)c2)cc1	40.1 µM	–	–	–	–
O=Cc1cn(Cc2cc(-c3ccc(F)cc3)cnc2Cl)nn1	19.8 µM	–	–	–	–
Cc1cnc(N2CCOCC2)c(Cn2cc(C=O)nn2)c1	21.8 µM	–	–	–	–
Cc1cnc(N2CCSCC2)c(Cn2cc(C=O)nn2)c1	10.3 µM	–	–	–	–
O=Cc1cn(Cc2cc(-c3ccccc3)cnc2N2CCOCC2)nn1	4.5 µM	–	–	–	–
O=Cc1cn(Cc2cc(-c3ccccc3)cnc2N2CCSCC2)nn1	8.6 µM	–	–	–	–
Cc1ccc(-c2cnc(N3CCOCC3)c(Cn3cc(C=O)nn3)c2)cc1	4.3 µM	–	–	–	–
Cc1ccc(-c2cnc(N3CCSCC3)c(Cn3cc(C=O)nn3)c2)cc1	33.1 µM	–	–	–	–
Cc1cnc(Cl)c(Cn2cc(/C=N/NC(=O)c3ccc(F)cc3)nn2)c1	33.6 µM	–	–	–	–
O=C(N/N=C/c1cn(Cc2cc(-c3ccccc3)cnc2Cl)nn1)c1ccc(F)cc1	3.6 µM	357 µg/mL (≈ 821 µM)	152 µg/mL (≈ 350 µM)	228	97
Cc1ccc(-c2cnc(Cl)c(Cn3cc(/C=N/NC(=O)c4ccc(F)cc4)nn3)c2)cc1	27.9 µM	–	–	–	–
O=C(N/N=C/c1cn(Cc2cc(-c3ccc(F)cc3)cnc2Cl)nn1)c1ccc(F)cc1	13.8 µM	–	–	–	–
Cc1cnc(Cl)c(Cn2cc(/C=N/NC(=O)c3ccc(C(F)(F)F)cc3)nn2)c1	3.7 µM	337 µg/mL (≈ 797 µM)	258 µg/mL (≈ 610 µM)	216	165
O=C(N/N=C/c1cn(Cc2cc(-c3ccccc3)cnc2Cl)nn1)c1ccc(C(F)(F)F)cc1	3.2 µM	282 µg/mL (≈ 582 µM)	313 µg/mL (≈ 646 µM)	180	200
Cc1ccc(-c2cnc(Cl)c(Cn3cc(/C=N/NC(=O)c4ccc(C(F)(F)F)cc4)nn3)c2)cc1	50.2 µM	–	–	–	–

Compound	MIC [1]	IC50 [2]	IC50 [3]	Selectivity Index [4]	selectivity ratio [5]
O=C(N/N=C/c1cn(Cc2cc(-c3ccc(F)cc3)cnc2Cl)nn1)c1ccc(C(F)(F)F)cc1	12.5 µM	–	–	–	–
Cc1cnc(N2CCOCC2)c(Cn2cc(/C=N/NC(=O)c3ccc(F)cc3)nn2)c1	59.1 µM	–	–	–	–
Cc1cnc(N2CCSCC2)c(Cn2cc(/C=N/NC(=O)c3ccc(F)cc3)nn2)c1	28.5 µM	–	–	–	–
O=C(N/N=C/c1cn(Cc2cc(-c3ccccc3)cnc2N2CCOCC2)nn1)c1ccc(F)cc1	12.9 µM	–	–	–	–
O=C(N/N=C/c1cn(Cc2cc(-c3ccccc3)cnc2N2CCSCC2)nn1)c1ccc(F)cc1	6.2 µM	> 400 µg/mL	188 µg/mL (≈ 375 µM)	>128	60
Cc1ccc(-c2cnc(N3CCOCC3)c(Cn3cc(/C=N/NC(=O)c4ccc(F)cc4)nn3)c2)cc1	100 µM	–	–	–	–
Cc1ccc(-c2cnc(N3CCSCC3)c(Cn3cc(/C=N/NC(=O)c4ccc(F)cc4)nn3)c2)cc1	97.1 µM	–	–	–	–
Cc1cnc(N2CCOCC2)c(Cn2cc(/C=N/NC(=O)c3ccc(C(F)(F)F)cc3)nn2)c1	26.4 µM	–	–	–	–
Cc1cnc(N2CCSCC2)c(Cn2cc(/C=N/NC(=O)c3ccc(C(F)(F)F)cc3)nn2)c1	3.2 µM	350 µg/mL (≈ 715 µM)	212 µg/mL (≈ 433 µM)	224	136
O=C(N/N=C/c1cn(Cc2cc(-c3ccccc3)cnc2N2CCOCC2)nn1)c1ccc(C(F)(F)F)cc1	23.3 µM	–	–	–	–
O=C(N/N=C/c1cn(Cc2cc(-c3ccccc3)cnc2N2CCSCC2)nn1)c1ccc(C(F)(F)F)cc1	2.8 µM	188 µg/mL (≈ 341 µM)	296 µg/mL (≈ 537 µM)	120	189
Cc1ccc(-c2cnc(N3CCOCC3)c(Cn3cc(/C=N/NC(=O)c4ccc(C(F)(F)F)cc4)nn3)c2)cc1	91.1 µM	–	–	–	–
Cc1ccc(-c2cnc(N3CCSCC3)c(Cn3cc(/C=N/NC(=O)c4ccc(C(F)(F)F)cc4)nn3)c2)cc1	5.4 µM	> 400 µg/mL	326 µg/mL (≈ 576 µM)	>128	104
O=C(O)c1cn(C2CC2)c2cc(N3CCNCC3)c(F)cc2c1=O [CIPROFLOXACIN]	12.6 µM	–	–	–	–
CC[C@@H](CO)NCCN[C@@H](CC)CO [ETHAMBUTOL]	15.3 µM	–	–	–	–
NNC(=O)c1ccncc1 [ISONIAZID]	2.6 µM	169 µg/mL (≈ 1230 µM)	> 400 µg/mL	–	–
